One test concerns the target Histamine H1 receptor (Homo sapiens, UniProt P35367). The test is described as follows: Displacement of [3H]pyrilamine from human histamine H1 receptor expressed in CHO-K1 cells. The test is classed as cell-based.
The target of the next test is Histamine H4 receptor (Homo sapiens, UniProt Q9H3N8). Put plainly: Displacement of [3H]histamine from human histamine H4 receptor expressed in Sf9 cells.
Another test addresses D(3) dopamine receptor (Homo sapiens, UniProt P35462). The test is described as follows: Displacement of [3H]spiperone from human dopamine D3 receptor expressed in CHO-K1 cells. Type of test: cell-based. (In a radioligand displacement assay an active substance lowers the binding of a labelled ligand.)
A further test has as its target Histamine H3 receptor (Homo sapiens, UniProt Q9Y5N1). Put plainly: Displacement of [3H]Nalpha-methylhistamine from human recombinant histamine H3 receptor expressed in HEK-293 cells. Type of test: cell-based, HEK293.
Another test deals with D(1A) dopamine receptor (Homo sapiens, UniProt P21728). The test is described as follows: Displacement of [3H]SCH23390 from human dopamine D1 receptor expressed in HEK cells. Type of test: cell-based, HEK293.
A further test concerns the target D(1B) dopamine receptor (Homo sapiens, UniProt P21918). Put plainly: Displacement of [3H]SCH23390 from human dopamine D5 receptor expressed in HEK cells. Type of test: cell-based, HEK293.
The target of a further test is D(2) dopamine receptor (Homo sapiens, UniProt P14416). Put plainly: Displacement of [3H]spiperone from human dopamine D2short receptor expressed in CHO-K1 cells. Type of test: cell-based.
Sequence of D(2) dopamine receptor (P14416 whole entry): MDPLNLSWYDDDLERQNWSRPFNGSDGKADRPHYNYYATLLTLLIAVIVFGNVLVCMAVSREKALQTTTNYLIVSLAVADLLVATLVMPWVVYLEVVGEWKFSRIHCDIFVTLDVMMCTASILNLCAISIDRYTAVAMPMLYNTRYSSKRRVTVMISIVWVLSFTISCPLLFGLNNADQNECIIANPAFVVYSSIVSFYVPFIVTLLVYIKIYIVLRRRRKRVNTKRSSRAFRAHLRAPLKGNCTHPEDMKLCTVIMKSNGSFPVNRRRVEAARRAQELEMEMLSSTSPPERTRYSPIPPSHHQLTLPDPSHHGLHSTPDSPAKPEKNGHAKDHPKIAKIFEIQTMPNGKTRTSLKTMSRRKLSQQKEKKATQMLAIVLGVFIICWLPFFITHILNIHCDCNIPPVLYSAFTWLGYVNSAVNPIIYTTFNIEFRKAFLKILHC

Sequence of D(3) dopamine receptor (P35462 whole entry): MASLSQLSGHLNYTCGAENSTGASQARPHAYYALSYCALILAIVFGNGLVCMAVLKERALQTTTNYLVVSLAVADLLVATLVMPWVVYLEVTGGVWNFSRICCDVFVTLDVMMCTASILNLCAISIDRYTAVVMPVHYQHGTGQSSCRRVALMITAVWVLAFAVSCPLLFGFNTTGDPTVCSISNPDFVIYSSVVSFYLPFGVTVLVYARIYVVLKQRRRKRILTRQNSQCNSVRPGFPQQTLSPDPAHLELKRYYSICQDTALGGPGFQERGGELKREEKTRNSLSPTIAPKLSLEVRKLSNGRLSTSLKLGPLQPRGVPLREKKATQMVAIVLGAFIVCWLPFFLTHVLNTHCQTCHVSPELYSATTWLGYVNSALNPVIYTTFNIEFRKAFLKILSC
Sequence of Histamine H3 receptor (Q9Y5N1 whole entry): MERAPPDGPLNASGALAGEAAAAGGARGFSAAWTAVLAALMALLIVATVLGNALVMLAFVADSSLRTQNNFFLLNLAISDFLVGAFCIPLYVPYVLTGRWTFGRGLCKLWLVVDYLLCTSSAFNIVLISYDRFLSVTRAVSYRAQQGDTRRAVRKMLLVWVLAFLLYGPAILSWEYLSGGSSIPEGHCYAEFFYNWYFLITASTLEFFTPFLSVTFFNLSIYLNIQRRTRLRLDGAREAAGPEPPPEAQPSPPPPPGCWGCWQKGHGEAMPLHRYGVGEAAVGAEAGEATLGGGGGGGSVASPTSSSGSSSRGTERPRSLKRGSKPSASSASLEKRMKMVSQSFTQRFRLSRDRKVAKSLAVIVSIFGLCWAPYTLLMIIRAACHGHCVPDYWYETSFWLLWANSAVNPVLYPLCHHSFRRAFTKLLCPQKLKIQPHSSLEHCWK
Sequence of Histamine H4 receptor (Q9H3N8 whole entry): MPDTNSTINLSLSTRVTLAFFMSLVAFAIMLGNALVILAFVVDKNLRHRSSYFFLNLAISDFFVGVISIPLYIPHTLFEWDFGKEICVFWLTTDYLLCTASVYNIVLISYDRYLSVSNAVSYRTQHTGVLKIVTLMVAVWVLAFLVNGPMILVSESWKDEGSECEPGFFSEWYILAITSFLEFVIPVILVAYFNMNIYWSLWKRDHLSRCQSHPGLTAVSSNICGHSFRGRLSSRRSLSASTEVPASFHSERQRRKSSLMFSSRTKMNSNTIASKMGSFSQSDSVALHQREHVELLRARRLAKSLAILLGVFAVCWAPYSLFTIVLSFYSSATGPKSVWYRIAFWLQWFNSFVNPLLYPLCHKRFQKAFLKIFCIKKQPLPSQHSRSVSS
Sequence of Histamine H1 receptor (P35367 whole entry): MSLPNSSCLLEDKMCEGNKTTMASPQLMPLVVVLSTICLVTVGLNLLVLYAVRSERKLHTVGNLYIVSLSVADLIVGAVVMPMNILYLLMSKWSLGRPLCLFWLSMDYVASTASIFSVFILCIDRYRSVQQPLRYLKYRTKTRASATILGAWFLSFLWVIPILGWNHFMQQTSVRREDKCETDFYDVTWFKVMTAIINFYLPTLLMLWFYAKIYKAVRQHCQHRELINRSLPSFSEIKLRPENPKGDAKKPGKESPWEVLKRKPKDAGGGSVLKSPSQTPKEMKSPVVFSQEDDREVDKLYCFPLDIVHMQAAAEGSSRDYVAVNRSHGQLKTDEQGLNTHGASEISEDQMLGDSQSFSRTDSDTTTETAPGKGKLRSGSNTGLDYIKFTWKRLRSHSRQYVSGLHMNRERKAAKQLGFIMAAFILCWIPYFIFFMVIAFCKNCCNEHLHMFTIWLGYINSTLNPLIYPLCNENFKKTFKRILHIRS
Sequence of D(1B) dopamine receptor (P21918 whole entry): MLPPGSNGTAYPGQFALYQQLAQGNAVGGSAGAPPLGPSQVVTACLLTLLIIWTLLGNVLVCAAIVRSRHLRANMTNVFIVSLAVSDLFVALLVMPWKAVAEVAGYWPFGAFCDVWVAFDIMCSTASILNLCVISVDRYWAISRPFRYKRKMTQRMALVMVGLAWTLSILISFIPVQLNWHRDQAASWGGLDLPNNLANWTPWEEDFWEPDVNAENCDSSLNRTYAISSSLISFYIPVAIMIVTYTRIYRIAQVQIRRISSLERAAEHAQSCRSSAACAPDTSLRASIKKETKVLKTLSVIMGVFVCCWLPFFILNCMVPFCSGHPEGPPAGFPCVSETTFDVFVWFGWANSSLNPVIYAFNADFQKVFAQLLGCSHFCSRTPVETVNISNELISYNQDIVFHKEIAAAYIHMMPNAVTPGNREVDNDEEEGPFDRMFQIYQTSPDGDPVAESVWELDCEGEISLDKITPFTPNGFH
Sequence of D(1A) dopamine receptor (P21728 whole entry): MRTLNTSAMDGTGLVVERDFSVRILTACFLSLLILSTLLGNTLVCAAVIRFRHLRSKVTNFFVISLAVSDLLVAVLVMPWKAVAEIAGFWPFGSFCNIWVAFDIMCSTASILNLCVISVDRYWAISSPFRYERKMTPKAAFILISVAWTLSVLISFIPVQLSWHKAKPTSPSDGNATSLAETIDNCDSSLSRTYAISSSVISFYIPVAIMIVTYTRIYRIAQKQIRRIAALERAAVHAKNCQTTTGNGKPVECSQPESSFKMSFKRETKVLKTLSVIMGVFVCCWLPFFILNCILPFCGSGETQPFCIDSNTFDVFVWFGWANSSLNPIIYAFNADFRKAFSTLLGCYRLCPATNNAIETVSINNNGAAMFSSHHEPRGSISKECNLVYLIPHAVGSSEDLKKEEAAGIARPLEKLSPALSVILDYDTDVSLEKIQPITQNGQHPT

On to `CC1=CC(C)=[N+]2C1=C(c1ccc(OCCCN3CCCCC3)cc1)c1c(C)cc(C)n1[B-]2(F)F` [BODILISANT], for which the Ki (commonly the dissociation constant of the complex between target and ligand, obtained from inhibition or displacement) on Histamine H1 receptor turned out to be 1660 nM; on Histamine H4 receptor, 7480 nM; at D(3) dopamine receptor, 1490 nM; on Histamine H3 receptor it was 6.51 nM; at D(1A) dopamine receptor, 12500 nM; at D(1B) dopamine receptor, 5210 nM. Moreover, at D(2) dopamine receptor, the Ki turned out to be 1970 nM.

(Values after ChEMBL document CHEMBL2321700, “Bodilisant-a novel fluorescent, highly affine histamine h3 receptor ligand” (ACS Med Chem Lett, 2013).)
